According to patent US20210267948A1, “TREATMENT OF CANCER” (CITY OF HOPE, priority 2017, published 2021):

Columns and labels:
[1] = system: multiple human cancer cell lines; assay: In vitro activity in multiple human cancer cell lines; type: cell-based; conditions: in most cases
[2] = system: MCF7 cells containing wild-type p53; assay: DNA damage checkpoint Western blot, MCF-7; type: cell-based, human
Description: FIG. 6. COH29 treatment activates DNA damage checkpoint. The effect of COH29 treatment on DNA damage checkpoint proteins in human breast cancer cells expressing wt p53 (MCF-7) or defective for p53 (MCF-7p53−/−), and in triple-negative breast cancer cells (MDA-MB-468) assessed by Western Blot.
For subcellular fractionation, cells were trypsinized and washed with cold PBS solution twice. After centrifugation at 1,200 g for 5 min, cells were incubated in buffer (50 mM HEPES, pH 7.5, 150 mM NaCl, 1 mM EDTA) containing 0.2% NONIDET™ P-40 (NP-40), supplemented with protease inhibitors (5 μg/ml each of pepstatin, leupeptin, and aprotinin) and phosphatase inhibitors on ice for 5 min. Following centrifugation at 1,000 g for 5 min, the supernatant was collected (i.e., cytoplasmic fraction) and pellets were washed with the same buffer twice. The washed samples were extracted for 40 min on ice with fractionation buffer containing 0.5% NP-40 for nuclear fraction. All the samples were sonicated and clarified by centrifugation at 16,000 g for 15 min. Protein concentrations of all fractions were determined with Bio-Rad Protein Assay (Bio-Rad Laboratories, Hercules, Calif.). Immunoblotting was performed as described previously (21,22). […] The immunoblots were visualized on film with the West-Q chemi-luminescence kit (GenDEPOT, Barker, Tex.).

[3] = GLP toxicity study in rats; type: in vivo; conditions: for Toxicity: Sprague-Dawley rats, top dose 125 mg/kg
Excerpt: Toxicity studies in rats and dogs at doses equivalent to 10× that dose have not shown toxicity at 10 or 21 days.

PARP1 = PARP1 protein expression by Western blot; type: cell-based, human
Description: FIGS. 3A-3B. […] (FIG. 3A): the effect of COH29 on PARP1 activity in isogenic pairs of breast (HCC1937) and ovarian (UWB1.289) cancer cell lines expressing mutant or wt BRCA1 (wt=+BRCA1 in each case) was assessed in duplicate using procedures described in Materials & Methods; FIG. 3B: the effect of COH29 on PARP1 protein expression in the isogenic HCC1937/HCC1937+BRCA1 cell lines was assessed by Western blot analysis using anti-human PARP1 antibody as the primary antibody. Loading control is β-actin.
For subcellular fractionation, cells were trypsinized and washed with cold PBS solution twice. […] Following centrifugation at 1,000 g for 5 min, the supernatant was collected (i.e., cytoplasmic fraction) and pellets were washed with the same buffer twice. The washed samples were extracted for 40 min on ice with fractionation buffer containing 0.5% NP-40 for nuclear fraction. All the samples were sonicated and clarified by centrifugation at 16,000 g for 15 min. Protein concentrations of all fractions were determined with Bio-Rad Protein Assay (Bio-Rad Laboratories, Hercules, Calif.). Immunoblotting was performed as described previously (21,22). Briefly, equal amounts of boiled protein samples were subjected to SDS-polyacrylamide gel electrophoresis (PAGE) and transferred onto nitrocellulose membranes (Bio-Rad Laboratories). Membranes were blocked for 1 hour in 3% BSA in Tris buffered saline containing 0.05% Tween 20 (TBST) and incubated for 1 hour with primary antibody (1:500 or 1:1000) diluted in TBST containing 1% BSA. After two washes with TBST, membranes were incubated for 1 hour with horseradish peroxidase-conjugated secondary Abs (1:3000 dilution) at room temperature. The immunoblots were visualized on film with the West-Q chemi-luminescence kit (GenDEPOT, Barker, Tex.).

O=C(Nc1nc(-c2ccc(O)c(O)c2)c(-c2ccccc2)s1)c1ccc(O)c(O)c1 [COH29, N-(4-(3,4-dihydroxyphenyl)-5-phenylthiazol-2-yl)-3,4-dihydroxybenzamide]
IC50 [1]: < 10 µM
DNA damage checkpoint (phosphorylation of ATM, CHK1, CHK2) [2]: activated the DNA damage checkpoint
γ-H2AX level [2]: increase
Toxicity ([3]; 10 days): none
Toxicity ([3]; 21 days): none
NOAEL ([3]; Sprague-Dawley, rat, in vivo): 250 mg/kg/day
PARP1 protein level (PARP1; HCC1937 BRCA1-defective, 24 h): attenuated PARP1 protein
PARP1 protein level (PARP1; HCC1937 cells irrespective of BRCA1 status, 4 h): Little reduction
